Measurements published in patent US4822790A, “1-Sulfo-2-oxoazetidine derivatives and their production” (Takeda Chemical Industries, Ltd., priority 1980, dated 1989).

Tests used:
Escherichia coli 0-111 = experiment: Antibacterial test (MIC), Escherichia coli 0-111; assay type: cell-based; settings: Escherichia coli, 0111; medium TSA; read-out: Minimum inhibitory concentration (MIC)
Source text: (§1) The following is media and compounds employed in the antibacterial test.
(§2) TSA=Trypticase soy agar [Baltimore Biologicals (U.S.A.)]
(§3) B-TSA=Blood trypticase soy agar

Klebsiella pneumoniae DT = experiment: Antibacterial test (MIC), Klebsiella pneumoniae DT; assay type: cell-based; settings: Klebsiella pneumoniae, read-out: Minimum inhibitory concentration (MIC)
Source text: as §1, §2, §3

[1] = tested on: Proteus vulgaris IFO 3988; experiment: Antibacterial test (MIC), Proteus vulgaris IFO 3988; assay type: cell-based; settings: Proteus vulgaris, IFO3988, read-out: Minimum inhibitory concentration (MIC)
Source text: as §1, §2, §3

[2] = tested on: Pseudomonas morganii IFO 3168; experiment: Antibacterial test (MIC), Pseudomonas morganii IFO 3168; assay type: cell-based; settings: IFO3168, medium TSA, read-out: Minimum inhibitory concentration (MIC)
Source text: as §1, §2, §3

[3] = target: T1, β-lactamase produced by Enterobacter cloacae PN 1282 (Enterobacter cloacae, UniProt P05364); experiment: Inhibitor concentration required to inhibit the β-lactamase (cephalosporinase) activity by 50%, micro-iodometric method; assay type: biochemical; settings: 0.05M phosphate buffer (pH 7), 30° C., 10 min preincubation, cephalothin 0.1 mM, read-out: I50 (inhibitor concentration required to inhibit the enzyme activity by 50%) (converted)
T1 construct: cephalothin substrate, micro-iodometric
T1 sequence (P05364 21-381): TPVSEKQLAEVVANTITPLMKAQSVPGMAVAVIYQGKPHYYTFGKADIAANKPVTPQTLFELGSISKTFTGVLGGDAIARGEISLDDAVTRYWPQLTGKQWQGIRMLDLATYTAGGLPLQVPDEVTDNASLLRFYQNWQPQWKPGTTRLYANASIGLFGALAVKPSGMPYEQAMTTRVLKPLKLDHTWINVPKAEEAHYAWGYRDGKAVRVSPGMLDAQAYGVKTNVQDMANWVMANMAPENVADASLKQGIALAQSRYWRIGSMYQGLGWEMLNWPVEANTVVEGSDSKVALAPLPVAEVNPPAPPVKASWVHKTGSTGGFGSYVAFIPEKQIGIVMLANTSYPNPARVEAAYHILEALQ
Experimental: "Determination of the inhibitor concentration required to inhibit the enzyme activity by 50%"
The β-lactamase produced by Enterobacter cloacae PN 1282 is used as a typical example of cephalosporinase. The β-lactamase is incubated in 0.05M phosphate buffer (pH 7) with an appropriate dilution of an inhibitor preparation at 30° C. for 10 minutes. Cephalothin is then added in an amount sufficient to produce a final concentration of 0.1 mM, and the enzymatic reaction is allowed to proceed for 10 minutes. The enzyme activity is determined by the micro-iodometric method [Journal of general Microbiology, vol. 33, page 121 (1963)]. Hereinafter, the inhibitor concentration required to inhibit the enzyme activity by 50% is expressed as I50.

SMILES	IC50 [3]	also measured
CCN1CCN(C(=O)N[C@@H](C(=O)NC2(OC)CN(S(=O)(=O)O)C2=O)c2ccccc2)C(=O)C1=O (single isomer, unassigned) [Compound C, Sodium 3-[D(-)-N-(4-ethyl-2,3-dioxo-1-piperazinocarbonyl)phenylglycinamido]-3-methoxy-2-oxoazetidine-1-sulfonate]	–	MIC (Escherichia coli 0-111): 12.5 µg/mL; MIC (Klebsiella pneumoniae DT): 12.5 µg/mL; MIC [1]: 12.5 µg/mL; MIC [2]: > 100 µg/mL
CON=C(C(=O)N[C@@H]1C(=O)N(S(=O)(=O)O)[C@H]1Sc1ccccc1)c1csc(N)n1	59 nM	–

Now from value to compound, other results behind:

IC50 [3]	SMILES	also measured
406 nM	CS[C@@H]1[C@H](NC(=O)C(=NOC(C)(C)C(=O)O)c2csc(N)n2)C(=O)N1S(=O)(=O)O	–
96.5 nM	CS[C@@H]1[C@H](NC(=O)c2c(-c3c(Cl)cccc3Cl)noc2C)C(=O)N1S(=O)(=O)O	–
759 nM	CON=C(C(=O)N[C@@H]1C(=O)N(S(=O)(=O)O)[C@@H]1SC)c1csc(N)n1	–
